Measured values published in patent US8883504B2, “Cell differentiation suppressing agent, method of culturing cells using the same, culture solution, and cultured cell line” (Asahi Kasei Kabushiki Kaisha, priority 2003, dated 2014).

Key:
[1] = tested on: Oct-3/4 gene; assay: Oct-3/4 gene expression level by real time PCR (ES cell differentiation inhibition assay 2); type: cell-based, mouse; conditions: D3ES cells, 7 days
Description: For the D3ES cells prepared by the method described in (3) preparation of a mouse ES cell of Example 1, 8×10^4 cells were seeded in a 10 cm-diameter cell culture dish coated previously with a 0.1% aqueous gelatin solution to make 10 mL of the ES cell assay medium. 1 mL of the differentiation inhibiting agent A to F, which were dissolved in dimethylsulfoxide (DMSO) or culture medium or their mixture to make 40 μg/mL per each dish, or ESGRO, which was adjusted to make 10^4 unit/mL, was added, and culturing was carried out at 37° C. in 5% […] incubator for 7 days. To the culture medium was added DMSO to make the final concentration 0.1% or lower.
A total RNA was extracted from the ES cells cultured by the method described in (1) ES cell differentiation inhibition assay 2 as described above, by using ISOGEN (K.K. Nippon Gene, Japan made) by the attached method. First, the medium was removed from the dish after the culture, the cells were washed twice with 10 mL of PBS, and dissolved in 1 mL of ISOGENE. After leaving stand at room temperature for 5 minutes, the solution was collected in a 1.5 mL Eppendorf tube. 0.2 mL of chloroform (Wako Pure Chemical Industries made) was added, shaken for 15 seconds and, then, left stand at room temperature for 2 or 3 minutes. The solution was centrifuged at 4° C. at 10000 rpm for 10 minutes by using a micro centrifuge (TOMY SEIKO Corp. made). 400 μL of the supernatant was transferred to a fresh 1.5 mL Eppendorf tube, 500 μL of isopropanol (Wako Pure, Chemical Industries made) was added, and left stand at room temperature for 10 minutes, and, then, centrifuged at 4° C. at 10000 rpm for 10 minutes by using the micro centrifuge. After the supernatant was removed, 1 mL of a 70% aqueous ethanol solution was added followed by shaking and, then, centrifugation was carried out at 4° C. at 10000 rpm for about 5 minutes by using, the micro centrifuge. After the supernatant was removed, a precipitation was dried and dissolved in 30 μL of distilled water to obtain the total RNA solution.
2 μg of the thus obtained total RNA was used as a template to synthesize a cDNA according to the attached protocol by using Deoxyribonuclease I (Amplification Grade)(Invitrogen Corp. made), Oligo(dT) 12-18 primer (Invitrogen Corp. made, 18418-012) and Omniscript reverse transcriptase (QIAGEN Corp, made). Thus, a reaction solution was prepared by adding 1 μL of 10× DNaseI Reaction Buffer, 1 μL of 10× DNaseI (all were made by Invitrogen Corp.) and distilled water to 2 μg of total RNA to make 10 μL in total, and the mixture was incubated at room temperature for 10 minutes. 1 μL of 25 mM EDTA solution was added and heated at 65° C. for 10 minutes. The mixture was cooled to room temperature, and then, 2 μL of 10× Buffer RT, 2 μL of 5 mM dNTP Mix, 2 μL of Oligo(dT) 12-18 primer, 0.25 μL of RNaseOUT (Invitrogen Corp. made, 10777-019) and 1 μL of Omniscript Reverse Transcriptase were added, and RNase-free purified water was added to give the total volume of 20 μL, and the mixture was incubated at 37° C. for 60 minutes to obtain cDNA solution. A portion of the synthesized cDNA obtained in such the way was diluted 5 folds with distilled water, and 2 μL of the solution was used as the template to conduct PCR by using Light Cycler-Fast Start DNA Master SYBR Green I Kit (Roche Diagnostics Corp. made) according to the attached protocol. The expression levels of the Oct-3/4 gene and glyceraldehyde-3-phosphate dehydrogenase (GAPDH) gene as the internal standard were measured. For amplifying the Oct-3/4 gene, sense primer OCT3 up (SEQ ID No.: 1) and antisense primer Oct3 down (SEQ ID No.: 2) were used, and for amplifying the GAPDH gene, sense primer GAPDH up (SEQ ID No.: 3) and antisense primer GAPDH down (SEQ ID No.: 4) were used. The composition of the PCR reaction solution and the reaction condition will be each presented below.

[2] = tested on: Nanog gene; assay: Nanog gene expression level by real time PCR (ES cell differentiation inhibition assay 3); type: cell-based, mouse; conditions: D3ES cells, 4 μg/mL, 1 day, GAPDH internal standard, FIG. 7
Description: For the D3ES cells prepared by the method described in (3) preparation of a mouse ES cell of Example 1, 7.85×10^5 cells were seeded in a 10 cm-diameter cell culture dish coated previously with a 0.1% aqueous gelatin solution to make 10 mL of the ES cell assay medium. The differentiation inhibiting agent B of the present invention in the final concentration of 4 μg/mL or ESGRO in the final concentration of 1×10^3 unit/mL was added to each dish, and culturing was carried out at 37° C. in 5% CO2 incubator for 1 day.
The total RNA was extracted from the ES cell cultured by the method shown in (3) ES cell differentiation inhibition assay 3 as described above by using ISOGEN (K.K. Nippon Gene Corp. Japan made) by the attached method. In this method, the cell was collected in a 15 mL sterilized tube, centrifuged at 1,000 rpm for about 5 minutes by using the table centrifuge (TOMY SEIKO made) to make pellets. The supernatant was removed, the pellets were washed twice with 10 mL of PBS, and then, transferred to a 1.5 mL Eppendorf tube. The pellets were dissolved in 1 ml ISOGENE and left stand at room temperature for 5 minutes and, then, added with 0.2 mL of chloroform (Wako Pure Chemicals), shaken for 15 seconds, and left stand at room temperature for 2 or 3 minutes. Centrifugation was carried out at 4° C. at 10,000 rpm for 15 minutes by using the micro centrifuge (TOMY SEIKO made), 400 μL of the supernatant was transferred to a fresh 1.5 mL Eppendorf tube. 500 μL of isopropanol (Wako Pure Chemicals) was added and the mixture was left stand at room temperature for 10 minutes and, then, was centrifuged at 4° C. at 10,000 rpm for 10 minutes by using the micro centrifuge. The supernatant was removed and, then, 1 mL of a 70% ethanol aqueous solution was added. The mixture was shaken and then was centrifuged at 4° C. at 10,000 rpm for about 5 minutes by using the micro centrifuge. The supernatant was removed and the precipitation was dried and, then, dissolved in 30 μL of distilled water to obtain the total RNA solution.
The cDNA was synthesized by using 2 μg of the total RNA obtained by such the way as the template, using DeoxyribonucleaseI (Amplification Grade) (Invitrogen Corp. made) and SuperScript III First-Strand Synthesis System for RT-PCR (Invitrogen Corp. made, 18080-051) by the attached protocol. In this step, 1 μL of 10× DNaseI Reaction Buffer, 1 μL of 10× DNaseI (all these were of Invitrogen Corp. made) were added to 2 μg of the total RNA to give the total volume of 10 μL by adding distilled water to prepare the reaction solution, and then incubation was carried out at room temperature for 10 minutes. 1 μL of 25 mM EDTA solution was added, and the mixture was heated at 65° C. for 10 minutes and then, cooled to room temperature. 8 μL of the reaction solution was taken out, and 1 μL of […] Oligo(dT) 20 primer and 1 μL of 10 mM dNTP Mix were added, and incubation was carried out at 65° C. for 5 minutes. The reaction solution was placed on ice for 1 minute, and then 2 μL of 10× RT Buffer, 4 μL of 25 mM MgCl2, 2 μL of 0.1 M DTT, 1 μL of RNaseOUT (Invitrogen Corp. made) and 1 μL of SuperScript III RT were added for incubation at 50° C. for 50 minutes. Subsequently, incubation was carried out at 85° C. for 5 minutes, and then the mixture was left stand on ice for 1 min. […] The expression level of the Nanog gene and the glyceraldehyde-3-phosphate dehydrogenase (GAPDH) gene as the internal standard were measured. […]

Compound: COc1cccc(N=NC(C(N)=O)=C2NC(C)(C)Cc3ccccc32)c1 [D, 2-(3,3-dimethyl-3,4-dihydro-2H-isoquinoline-1-ylidene)-2-(3-methoxy-phenylazo)-acetamide]
- expression of Oct-3/4 gene in comparison with ES cells cultured in the medium without the differentiation inhibiting agent ([1]; GAPDH internal standard, FIG. 6): significantly promoted
- effect of keeping the expression of the Oct-3/4 gene relative to ESGRO ([1]; compared with 1,000 units/mL of ESGRO): comparable with 1,000 units/mL of ESGRO
- expression level of Nanog gene in comparison with medium without agent and medium containing 1,000 units/mL of ESGRO [2]: increased similarly to the differentiation inhibiting agents B
